Converted amounts (≈) assume the structure as drawn.
Conditions: buffer; pH 7.4; 200.0 µM

Compound | solubility kinetic
Cc1nc(NC(=O)CSc2nc(N)cc(N)n2)sc1C | > 46.6 µg/mL
O=C(NCCc1ccccc1)C(=O)Nc1ccc2c(c1)OCCO2 | < 0.3 µg/mL
O=C1CN(C(=O)COC(=O)c2cccs2)c2ccccc2N1 | 29.2 µg/mL (≈ 92.3 µM)
COc1ccccc1NC(=O)N1C[C@@H]2C[C@@H](C1)c1cccc(=O)n1C2 | > 50.9 µg/mL
N#Cc1c(N2CCCC2)ccc(Br)c1Cl | < 0.3 µg/mL
COc1ccc(-c2csc(COC(=O)C(C)(C)C)n2)cc1 | < 0.7 µg/mL
CCC1(C)Cc2c(C#N)c(N)n(-c3ccccc3)c(=S)c2CO1 (stereo not given) | 26.4 µg/mL (≈ 81.1 µM)
Cc1cccc(C)c1Nc1ncnc2ccccc12.Cl | > 42.9 µg/mL
Cc1cccc(C(=O)OCC(=O)NC(=O)c2ccccc2)c1O | < 0.7 µg/mL
CCOc1ccc(CNC(=O)c2ccco2)cc1 | > 36.8 µg/mL
COc1ccc(NC(=O)CSc2ccccn2)c([N+](=O)[O-])c1 | 7.3 µg/mL (≈ 22.9 µM)
CCOc1ccccc1C(=O)Nc1cccc2cccnc12 | < 0.3 µg/mL
COc1cccc(C(=O)Nc2ccc3c(C)cc(=O)oc3c2)c1 | < 0.7 µg/mL
CC(=O)Nc1ccc(-c2nc3ccccc3c(=O)o2)cc1 | 0.5 µg/mL (≈ 1.78 µM)
CCOCCCNC(=O)C1CC(=O)N(CCc2ccccc2)C1 (stereo not given) | 41.7 µg/mL (≈ 131 µM)
COCCNc1nc(C)c(C(C)=O)s1 | 25.7 µg/mL (≈ 120 µM)
N/C(=N\S(=O)(=O)c1cccs1)c1ccccc1Cl | > 45.1 µg/mL
O=C(Nc1ccccc1)Nc1ccc(NC(=O)c2ccccc2O)cc1 | < 0.2 µg/mL
O=C(Cc1ccc(Br)cc1)OCC(=O)c1ccc[nH]1 | 10.3 µg/mL (≈ 32 µM)

Compound | solubility kinetic
O=[N+]([O-])c1ccc2c(c1)/C(=N\O)c1ccccc1-2 | 0.5 µg/mL (≈ 2.08 µM)
COC(=O)c1ccc(N/C=C/C(=O)c2ccccc2)cc1 | 1.5 µg/mL (≈ 5.33 µM)
COc1ccc(/C=C2\SC(=N)N(c3ccc(F)cc3)C2=O)cc1OC | 3.8 µg/mL (≈ 10.6 µM)
O=C(COc1ccccc1Br)N1CCNC1=O | 42.2 µg/mL (≈ 141 µM)
Cc1cccc(NC(=O)CSc2nc(C3CC3)nc3ccccc23)c1 | 0.3 µg/mL (≈ 0.858 µM)
COC(=O)c1cccc(Cn2cc([N+](=O)[O-])cn2)c1 | > 39.2 µg/mL
CSCC[C@H](NC(=O)Nc1cccc(Br)c1)C(=O)O | 39.4 µg/mL (≈ 113 µM)
CCOc1cccc2cc(C(=O)NCc3ccccc3)c(=N)oc12 | 2.1 µg/mL (≈ 6.51 µM)
CN1CCN(C(=O)c2ccc(Oc3ccc([N+](=O)[O-])cc3)cc2)CC1 | > 51.2 µg/mL
O=C(Nc1nc(-c2cccnc2)cs1)c1cccc([N+](=O)[O-])c1 | 0.9 µg/mL (≈ 2.76 µM)
S=C(Nc1cccnc1)Nc1ccccc1Br | > 46.2 µg/mL
Cc1ccc(NC(=O)Nc2cc(C(F)(F)F)c[nH]c2=O)cc1 | 0.4 µg/mL (≈ 1.29 µM)
CC(C)(C)c1ccc(/C=C(\C#N)C(=O)NC2CC2)cc1 | 3.7 µg/mL (≈ 13.8 µM)
COc1ccc(OCC(=O)NC2CCSc3ccccc32)cc1 (stereo not given) | 38.6 µg/mL (≈ 117 µM)
COc1ccccc1CNC(=O)CCN1C(=O)c2ccccc2C1=O | > 50.8 µg/mL
C#CCN1c2ccccc2Sc2cccnc21 | 4.8 µg/mL (≈ 20.1 µM)
C/C(=C/c1ccccc1)C(=O)N1CCC(C)CC1 | > 36.5 µg/mL
CC(=O)/C=C(\C)Nc1c(C)n(C)n(-c2ccccc2)c1=O | > 42.8 µg/mL
Fc1ccc(-c2ncc3ccccn23)cc1 | 14.3 µg/mL (≈ 67.4 µM)

Now from value to molecule:

solubility kinetic | Compound
> 52.3 µg/mL | CCN1CC(CN(C)Cc2nc(-c3ccc(Cl)cc3)no2)CC1=O (stereo not given)
41.1 µg/mL (≈ 116 µM) | COc1cc2c(cc1OC)C(C)N(S(=O)(=O)c1cccs1)CC2 (stereo not given)
> 37.4 µg/mL | Cc1ccc(NC(=O)C2=NNC(=O)CC2)cc1F
> 26.6 µg/mL | O=C(O)c1ccc2c(c1)CCCN2
> 37.2 µg/mL | Cc1cc(C(=O)N/N=C2\CCCC(=O)C2)c(C)o1
> 41.3 µg/mL | COc1ccc(N2C(=O)CC(C3CCCO3)C2=O)cc1 (stereo not given)
< 0.3 µg/mL | O=C1CCc2ccc(OCCCCN3CCN(c4cccc(Cl)c4Cl)CC3)cc2N1
47.6 µg/mL (≈ 135 µM) | CCc1nc(CN2CCN(c3cc(C(F)(F)F)ccn3)CC2)c(C)[nH]1
> 39.4 µg/mL | Cc1cccc(CC(=O)NCCN2CCOCC2)c1
> 67.6 µg/mL | O=C(CC1SC(N2CCCCC2)=NC1=O)Nc1cccc(C(=O)NCc2ccccc2)c1 (stereo not given)
32 µg/mL (≈ 107 µM) | Cc1ccc(S(=O)(=O)n2c(C)nc3cc(C)ccc32)cc1
52.1 µg/mL (≈ 112 µM) | COc1cc(OC)cc(C(=O)NCC(=O)N2CCN(S(=O)(=O)c3ccccc3F)CC2)c1
> 60.2 µg/mL | CCN(Cc1ccncc1)C(=O)c1ccc(C)c(S(=O)(=O)N2CCCCC2)c1
7.4 µg/mL (≈ 21.1 µM) | CCCc1ccc(NS(=O)(=O)c2c(C)oc(C)c2C(=O)OC)cc1
56 µg/mL (≈ 125 µM) | CC(=O)c1ccc(OCCCC(=O)Nc2cccc(S(=O)(=O)N3CCOCC3)c2)cc1
> 44 µg/mL | O=S(=O)(NCc1cn2ccccc2n1)c1cccs1
> 31.4 µg/mL | CC1CN(C2=CC(=O)CCC2)CC(C)O1 (stereo not given)
20.2 µg/mL (≈ 41.3 µM) | CCCCn1c(NC(=O)c2ccco2)c(S(=O)(=O)c2ccc(C)cc2)c2nc3ccccc3nc21
> 39.2 µg/mL | Cc1cc(C)n(CC(=O)NCCC2=CCCCC2)n1
> 35.4 µg/mL | C[C@H](NC(=O)c1ccco1)C(=O)N1CCCC1
> 46.3 µg/mL | CCC(C)NS(=O)(=O)c1cc2c3c(c1)CCN3C(=O)CC2 (stereo not given)
> 56.3 µg/mL | COc1ccc(CCN2CC(C(=O)Nc3nccs3)CC2=O)cc1OC (stereo not given)
